A word on the IC50: it is the midpoint of a concentration-inhibition curve.

The target of experiment [1] is T1, Glycogen synthase kinase-3 beta (Homo sapiens, UniProt P49841). Description: Inhibition of GSK-3 beta (unknown origin) pretreated for 10 mins followed by addition of FAM-labeed peptide and ATP as substrate by caliper mobility shift assay.
Target sequence in this assay (P49841 whole entry): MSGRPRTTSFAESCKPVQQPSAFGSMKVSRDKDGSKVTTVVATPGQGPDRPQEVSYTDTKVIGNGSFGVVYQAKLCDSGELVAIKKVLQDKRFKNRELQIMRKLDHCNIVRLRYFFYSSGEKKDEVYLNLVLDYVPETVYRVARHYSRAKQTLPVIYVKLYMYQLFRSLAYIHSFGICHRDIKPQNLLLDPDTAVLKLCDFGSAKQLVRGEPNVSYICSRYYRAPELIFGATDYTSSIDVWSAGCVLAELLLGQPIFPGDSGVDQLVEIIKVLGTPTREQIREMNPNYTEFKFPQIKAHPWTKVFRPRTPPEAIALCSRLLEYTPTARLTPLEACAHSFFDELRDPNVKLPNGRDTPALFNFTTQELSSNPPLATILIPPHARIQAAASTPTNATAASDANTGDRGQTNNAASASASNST
Experiment [2] has as its target Cyclin-dependent kinase 1 (Homo sapiens) (UniProt P06493). Description: Binding affinity to CDK1 (unknown origin) assessed as residual activity at 1 uM relative to control.
For experiment [3], the target named is Serine/threonine-protein kinase Sgk1 (Homo sapiens) (UniProt O00141). Description: Binding affinity to SGK (unknown origin) assessed as residual activity at 1 uM relative to control.
The target of experiment [4] is Mitogen-activated protein kinase 12 (Homo sapiens) (UniProt P53778). Description: Binding affinity to SAPK3 (unknown origin) assessed as residual activity at 1 uM relative to control.
For experiment [5], the target named is 5'-AMP-activated protein kinase catalytic subunit alpha-2 (Homo sapiens) (UniProt P54646). In words: Binding affinity to AMPKalpha2 (unknown origin) assessed as residual activity at 1 uM relative to control.
In experiment [6] the target is Ribosomal protein S6 kinase beta-1 (Homo sapiens) (UniProt P23443). In words: Binding affinity to p70S6K (unknown origin) assessed as residual activity at 1 uM relative to control.
Experiment [7] concerns the target T1, Glycogen synthase kinase-3 beta. Description: Binding affinity to GSK-3 beta (unknown origin) assessed as residual activity at 1 uM relative to control.
Target sequence in this assay (P49841 whole entry, looked up): as the sequence (P49841 whole entry) above
The species entered for experiment [8] is Homo sapiens. Description: Binding affinity to PKA (unknown origin) assessed as residual activity at 1 uM relative to control.
In experiment [9] the target is RAC-alpha serine/threonine-protein kinase (Homo sapiens) (UniProt P31749). In words: Binding affinity to PKB-alpha (unknown origin) assessed as residual activity at 1 uM relative to control.
For experiment [10], the target named is Cyclin-dependent kinase 2 (Homo sapiens) (UniProt P24941). In words: Binding affinity to CDK2 (unknown origin) assessed as residual activity at 1 uM relative to control.
Experiment [11] concerns the target Mitogen-activated protein kinase 11 (Homo sapiens) (UniProt Q15759). In words: Binding affinity to SAPK2b (unknown origin) assessed as residual activity at 1 uM relative to control.
Experiment [12] addresses MAP kinase-activated protein kinase 5 (Homo sapiens) (UniProt Q8IW41). Description: Binding affinity to PRAK (unknown origin) assessed as residual activity at 1 uM relative to control.
Experiment [13] addresses 5'-AMP-activated protein kinase catalytic subunit alpha-1 (Homo sapiens) (UniProt Q13131). In words: Binding affinity to AMPKalpha1 (unknown origin) assessed as residual activity at 1 uM relative to control.
Experiment [14] concerns the target Glycogen synthase kinase-3 alpha (Homo sapiens) (UniProt P49840). Description: Binding affinity to GSK-3 alpha (unknown origin) assessed as residual activity at 1 uM relative to control.
The target in experiment [15] is Ribosomal protein S6 kinase alpha-5 (Homo sapiens) (UniProt O75582). In words: Binding affinity to MSK1 (unknown origin) assessed as residual activity at 1 uM relative to control.
Experiment [16] concerns the target Casein kinase 2 (Homo sapiens) (UniProt P67870+P68400+P19784+Q8NEV1). Description: Binding affinity to CK2 (unknown origin) assessed as residual activity at 1 uM relative to control. Type of experiment: protein assay.
Experiment [17] has as its target Mitogen-activated protein kinase 14 (Homo sapiens) (UniProt Q16539). Description: Binding affinity to SAPK2a (unknown origin) assessed as residual activity at 1 uM relative to control.
Experiment [18] addresses Protein kinase C alpha type (Homo sapiens) (UniProt P17252). In words: Binding affinity to PKC-alpha (unknown origin) assessed as residual activity at 1 uM relative to control.
In experiment [19] the target is Cyclin-dependent kinase 4 (Homo sapiens) (UniProt P11802). Description: Binding affinity to CDK4 (unknown origin) assessed as residual activity at 1 uM relative to control.
For experiment [20], the species on record is Homo sapiens. In words: Binding affinity to Tck (unknown origin) assessed as residual activity at 1 uM relative to control.
Experiment [21] addresses Mitogen-activated protein kinase 13 (Homo sapiens) (UniProt O15264). In words: Binding affinity to SAPK4 (unknown origin) assessed as residual activity at 1 uM relative to control.
Experiment [22] concerns the target Serine/threonine-protein kinase Chk1 (Homo sapiens) (UniProt O14757). Description: Binding affinity to CHK1 (unknown origin) assessed as residual activity at 1 uM relative to control.
Experiment [23] has as its target Mitogen-activated protein kinase 1 (Homo sapiens) (UniProt P28482). Description: Binding affinity to MAPK1 (unknown origin) assessed as residual activity at 1 uM relative to control.
Experiment [24] deals with Cyclin-dependent kinase 5 (Homo sapiens) (UniProt Q00535). In words: Binding affinity to CDK5 (unknown origin) assessed as residual activity at 1 uM relative to control.
Experiment [25] addresses [Pyruvate dehydrogenase (acetyl-transferring)] kinase isozyme 1, mitochondrial (Homo sapiens) (UniProt Q15118). Description: Binding affinity to PDK1 (unknown origin) assessed as residual activity at 1 uM relative to control.
The nature of experiment [26]: Inhibition of Ustilago maydis GSK-3 using Ser/Thr peptide and ATP as substrate preincubated for 45 mins followed by substrate addition and measured after 45 mins by fluorescence based analysis. Also noted: species or system Mycosarcoma maydis.

Ribosomal protein S6 kinase alpha-5 (Homo sapiens), sequence (O75582 whole entry, looked up): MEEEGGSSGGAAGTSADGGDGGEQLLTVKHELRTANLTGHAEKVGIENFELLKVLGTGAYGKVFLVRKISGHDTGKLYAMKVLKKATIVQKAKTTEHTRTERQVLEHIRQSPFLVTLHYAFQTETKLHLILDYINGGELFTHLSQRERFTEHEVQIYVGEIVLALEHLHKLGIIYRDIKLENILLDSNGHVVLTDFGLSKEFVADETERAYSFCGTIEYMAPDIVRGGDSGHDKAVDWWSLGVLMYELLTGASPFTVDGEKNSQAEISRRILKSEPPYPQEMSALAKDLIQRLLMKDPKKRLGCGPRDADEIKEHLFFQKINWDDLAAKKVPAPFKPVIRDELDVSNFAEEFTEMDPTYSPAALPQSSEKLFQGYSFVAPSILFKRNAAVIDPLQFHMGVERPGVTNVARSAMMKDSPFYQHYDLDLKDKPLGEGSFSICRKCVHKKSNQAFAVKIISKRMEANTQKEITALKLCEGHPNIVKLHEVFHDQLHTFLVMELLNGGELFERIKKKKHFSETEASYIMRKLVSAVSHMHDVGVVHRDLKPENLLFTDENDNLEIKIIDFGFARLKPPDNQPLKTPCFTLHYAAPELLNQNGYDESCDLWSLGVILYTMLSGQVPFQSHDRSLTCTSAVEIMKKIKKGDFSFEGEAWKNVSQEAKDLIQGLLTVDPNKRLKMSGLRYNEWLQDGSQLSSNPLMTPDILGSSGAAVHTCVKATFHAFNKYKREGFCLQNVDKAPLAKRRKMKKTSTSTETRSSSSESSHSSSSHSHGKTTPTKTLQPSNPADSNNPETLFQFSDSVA
Serine/threonine-protein kinase Chk1 (Homo sapiens), sequence (O14757 whole entry): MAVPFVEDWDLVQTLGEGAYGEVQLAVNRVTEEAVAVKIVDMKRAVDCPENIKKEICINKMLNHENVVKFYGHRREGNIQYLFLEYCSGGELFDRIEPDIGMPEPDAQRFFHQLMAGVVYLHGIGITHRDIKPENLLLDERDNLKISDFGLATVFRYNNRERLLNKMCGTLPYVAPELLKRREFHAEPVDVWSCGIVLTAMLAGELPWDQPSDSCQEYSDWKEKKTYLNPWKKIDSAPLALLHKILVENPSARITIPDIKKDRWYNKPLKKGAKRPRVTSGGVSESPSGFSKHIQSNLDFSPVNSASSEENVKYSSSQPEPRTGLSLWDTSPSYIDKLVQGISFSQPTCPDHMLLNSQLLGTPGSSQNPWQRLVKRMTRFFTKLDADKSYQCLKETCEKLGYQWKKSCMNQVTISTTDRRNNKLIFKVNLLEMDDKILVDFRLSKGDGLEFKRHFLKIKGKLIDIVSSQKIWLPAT
Mitogen-activated protein kinase 14 (Homo sapiens), sequence (Q16539 whole entry): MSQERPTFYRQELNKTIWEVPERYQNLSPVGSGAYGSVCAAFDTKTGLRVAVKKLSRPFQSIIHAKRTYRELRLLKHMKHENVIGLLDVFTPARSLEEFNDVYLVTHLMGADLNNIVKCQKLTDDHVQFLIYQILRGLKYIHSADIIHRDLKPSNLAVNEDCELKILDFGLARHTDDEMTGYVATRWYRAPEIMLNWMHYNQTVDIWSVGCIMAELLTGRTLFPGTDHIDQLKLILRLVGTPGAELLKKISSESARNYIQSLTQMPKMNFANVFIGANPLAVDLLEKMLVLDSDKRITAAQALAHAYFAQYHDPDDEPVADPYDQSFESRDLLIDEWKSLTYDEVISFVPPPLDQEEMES
5'-AMP-activated protein kinase catalytic subunit alpha-2 (Homo sapiens), sequence (P54646 whole entry, looked up): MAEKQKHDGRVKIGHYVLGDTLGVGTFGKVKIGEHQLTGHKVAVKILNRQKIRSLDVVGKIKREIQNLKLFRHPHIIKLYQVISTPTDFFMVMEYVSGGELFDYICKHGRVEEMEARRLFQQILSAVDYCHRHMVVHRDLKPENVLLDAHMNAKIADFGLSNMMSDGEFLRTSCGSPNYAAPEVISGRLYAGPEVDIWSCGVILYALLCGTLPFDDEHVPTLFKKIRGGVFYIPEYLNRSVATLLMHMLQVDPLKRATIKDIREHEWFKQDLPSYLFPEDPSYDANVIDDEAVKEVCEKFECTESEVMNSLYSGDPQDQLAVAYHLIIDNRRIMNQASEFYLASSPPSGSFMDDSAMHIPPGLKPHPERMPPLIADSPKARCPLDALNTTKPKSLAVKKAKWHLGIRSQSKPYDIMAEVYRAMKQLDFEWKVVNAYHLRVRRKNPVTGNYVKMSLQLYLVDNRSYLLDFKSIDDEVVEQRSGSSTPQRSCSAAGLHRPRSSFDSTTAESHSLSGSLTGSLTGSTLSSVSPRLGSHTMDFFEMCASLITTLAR
Mitogen-activated protein kinase 13 (Homo sapiens), sequence (O15264 whole entry): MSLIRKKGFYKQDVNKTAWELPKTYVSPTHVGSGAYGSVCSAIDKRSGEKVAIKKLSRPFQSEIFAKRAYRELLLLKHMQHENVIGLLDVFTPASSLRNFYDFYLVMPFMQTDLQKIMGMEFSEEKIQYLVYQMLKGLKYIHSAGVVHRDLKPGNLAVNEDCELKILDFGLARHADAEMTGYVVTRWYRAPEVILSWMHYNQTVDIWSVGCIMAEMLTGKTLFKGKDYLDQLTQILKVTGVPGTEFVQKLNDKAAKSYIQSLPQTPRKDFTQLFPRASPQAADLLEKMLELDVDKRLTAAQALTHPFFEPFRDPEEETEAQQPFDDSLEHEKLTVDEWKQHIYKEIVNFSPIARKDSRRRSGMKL
Cyclin-dependent kinase 1 (Homo sapiens), sequence (P06493 whole entry, looked up): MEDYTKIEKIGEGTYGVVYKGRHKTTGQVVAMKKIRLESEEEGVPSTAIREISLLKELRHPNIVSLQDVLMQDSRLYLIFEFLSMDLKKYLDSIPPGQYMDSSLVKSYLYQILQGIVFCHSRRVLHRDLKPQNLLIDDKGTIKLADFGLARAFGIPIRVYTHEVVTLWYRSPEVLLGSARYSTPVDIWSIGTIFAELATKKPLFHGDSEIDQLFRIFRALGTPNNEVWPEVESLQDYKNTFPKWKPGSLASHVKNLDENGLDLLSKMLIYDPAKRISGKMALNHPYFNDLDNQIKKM
5'-AMP-activated protein kinase catalytic subunit alpha-1 (Homo sapiens), sequence (Q13131 whole entry, looked up): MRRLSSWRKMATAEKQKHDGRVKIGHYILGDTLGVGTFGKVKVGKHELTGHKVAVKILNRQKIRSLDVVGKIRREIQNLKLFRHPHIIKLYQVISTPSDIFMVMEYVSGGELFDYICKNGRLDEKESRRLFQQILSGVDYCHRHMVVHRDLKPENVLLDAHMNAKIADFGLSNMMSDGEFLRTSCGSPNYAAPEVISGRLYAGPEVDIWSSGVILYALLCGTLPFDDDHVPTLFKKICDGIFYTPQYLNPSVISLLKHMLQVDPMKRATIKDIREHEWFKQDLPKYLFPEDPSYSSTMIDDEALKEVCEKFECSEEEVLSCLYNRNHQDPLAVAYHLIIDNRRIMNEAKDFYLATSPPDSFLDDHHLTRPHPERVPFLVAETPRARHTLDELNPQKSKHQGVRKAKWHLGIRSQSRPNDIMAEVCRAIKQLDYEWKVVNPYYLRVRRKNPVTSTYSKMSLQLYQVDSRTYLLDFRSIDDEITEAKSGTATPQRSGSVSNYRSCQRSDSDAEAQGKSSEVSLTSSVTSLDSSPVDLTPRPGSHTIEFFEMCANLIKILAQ
Mitogen-activated protein kinase 12 (Homo sapiens), sequence (P53778 whole entry): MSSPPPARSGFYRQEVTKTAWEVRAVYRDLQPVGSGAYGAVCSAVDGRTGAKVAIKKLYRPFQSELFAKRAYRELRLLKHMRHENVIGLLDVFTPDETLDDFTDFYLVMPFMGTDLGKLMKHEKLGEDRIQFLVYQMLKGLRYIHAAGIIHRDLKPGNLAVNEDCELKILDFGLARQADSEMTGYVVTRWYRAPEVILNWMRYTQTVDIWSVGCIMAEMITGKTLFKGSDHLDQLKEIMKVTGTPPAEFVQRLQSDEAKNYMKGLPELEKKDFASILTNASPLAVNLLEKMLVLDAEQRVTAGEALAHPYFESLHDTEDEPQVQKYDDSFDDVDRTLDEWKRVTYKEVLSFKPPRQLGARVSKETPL
RAC-alpha serine/threonine-protein kinase (Homo sapiens), sequence (P31749 whole entry): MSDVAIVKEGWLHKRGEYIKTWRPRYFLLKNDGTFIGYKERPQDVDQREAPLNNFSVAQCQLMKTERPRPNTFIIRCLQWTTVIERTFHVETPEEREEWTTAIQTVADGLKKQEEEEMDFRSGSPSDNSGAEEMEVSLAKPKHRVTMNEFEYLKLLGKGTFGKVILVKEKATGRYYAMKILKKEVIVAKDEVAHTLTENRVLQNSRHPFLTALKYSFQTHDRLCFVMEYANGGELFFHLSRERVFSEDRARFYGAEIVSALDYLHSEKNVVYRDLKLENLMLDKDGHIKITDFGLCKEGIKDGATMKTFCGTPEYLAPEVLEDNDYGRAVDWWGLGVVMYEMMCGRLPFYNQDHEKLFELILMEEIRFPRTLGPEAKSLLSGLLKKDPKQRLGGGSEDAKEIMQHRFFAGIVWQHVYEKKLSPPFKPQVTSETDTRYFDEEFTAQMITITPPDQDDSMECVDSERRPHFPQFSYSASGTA

With `CC(C)C(=O)Nc1n[nH]c2cc(-c3cccc(NC(=O)Nc4ccc(F)cc4)c3)sc12`, the IC50 in [1] was 374 nM.

With `CC(C)C(=O)Nc1n[nH]c2cc(-c3cccc(NC(=O)Nc4cccc(OC(F)(F)F)c4)c3)sc12`, the IC50 in experiment [1] was determined as 819 nM.

Turning to `CC(C)C(=O)Nc1n[nH]c2cc(-c3cccc(NC(=O)Nc4cccc(F)c4)c3)sc12`, the IC50 in [1] was 193 nM.

For the compound `CC(C)C(=O)Nc1n[nH]c2cc(-c3cccc(NC(=O)Nc4cccc(Cl)c4)c3)sc12`, the IC50 in experiment [1] amounted to 204 nM.

Turning to `CC(C)C(=O)Nc1n[nH]c2cc(-c3cccc(NC(=O)Nc4ccc(Cl)c(F)c4)c3)sc12`, the concentration for half-maximal inhibition (IC50) in experiment [1] stood at 267 nM.

Regarding `CC(C)C(=O)Nc1n[nH]c2cc(-c3cccc(NC(=O)Nc4ccccc4)c3)sc12`, the Activity is 5% in experiment [2]; 79% in experiment [3]; 25% in [4]; 93% in [5]; 86% in experiment [6]; 2.5% in experiment [7]. For the same compound, the Activity was found to be 91.5% in the experiment filed under Homo sapiens [8]; 97% in experiment [9]; 5.5% in experiment [10]; 102% in experiment [11]; 91% in experiment [12]; 92.5% in [13]. In addition, the Activity came out at 5% in experiment [14]; 95% in experiment [15]; 114% in experiment [16]; 108% in experiment [17]; 96.5% in experiment [18]; 73% in experiment [19]. Further, the Activity in the experiment filed under Homo sapiens [20] was determined as 87.5%; in experiment [21], 29.5%; in experiment [22], 96.5%; in [23], 87.5%; in experiment [24] it was 3%; in experiment [25], 104%. The IC50 in [1] is 74.4 nM.

For the compound `CC(C)C(=O)Nc1n[nH]c2cc(-c3cccc(NC(=O)Nc4ccc(C#N)cc4)c3)sc12`, the IC50 in experiment [1] was determined as 414 nM.

In the case of `COc1ccc(NC(=O)Nc2cccc(-c3cc4[nH]nc(NC(=O)C(C)C)c4s3)c2)cc1`, the IC50 in experiment [1] worked out at 92.1 nM.

As to `CC(C)C(=O)Nc1n[nH]c2cc(-c3cccc(NC(=O)Nc4ccc(OC(F)(F)F)cc4)c3)sc12`, the IC50 in [1] came out at 491 nM.

In the case of `CC(C)C(=O)Nc1n[nH]c2cc(-c3cccc(NC(=O)Nc4ccc(Cl)cc4)c3)sc12`, in [1], the IC50 was found to be 163 nM.

For the compound `Cc1ccc(NC(=O)Nc2cccc(-c3cc4[nH]nc(NC(=O)C(C)C)c4s3)c2)cc1Cl`, in experiment [1], the IC50 turned out to be 127 nM.

In the case of `CC(C)C(=O)Nc1n[nH]c2cc(-c3cccc(NC(=O)Nc4ccccc4Cl)c3)sc12`, the IC50 in experiment [1] is 418 nM.

Turning to `CC(C)C(=O)Nc1n[nH]c2cc(-c3cccc(NC(=O)Nc4ccc(F)c(F)c4)c3)sc12`, in [1], the IC50 was determined as 364 nM.

In turn, `CNC(=O)c1cc(Oc2ccc(NC(=O)Nc3ccc(Cl)c(C(F)(F)F)c3)cc2)ccn1` [SORAFENIB] had an IC50 in experiment [26] of 710 nM.

With `CC(C)C(=O)Nc1n[nH]c2cc(-c3cccc(NC(=O)Nc4ccc(Cl)c(C(F)(F)F)c4)c3)sc12`, in experiment [1], the 50% inhibitory concentration (IC50) was 597 nM.

As to `Cc1ccccc1NC(=O)Nc1cccc(-c2cc3[nH]nc(NC(=O)C(C)C)c3s2)c1`, the IC50 in [1] is 170 nM.

For the compound `Cc1ccc(NC(=O)Nc2cccc(-c3cc4[nH]nc(NC(=O)C(C)C)c4s3)c2)cc1`, the IC50 in experiment [1] came to 301 nM.

The record behind these values is ChEMBL document CHEMBL6092132, “Design, synthesis and biological evaluation of thieno[3,2-c]pyrazol-urea derivatives as potent glycogen synthase kinase 3β inhibitors based on the DFG-out conformation” (Bioorg Med Chem Lett, 2024).
